# Measured values from patent US12552825B2 (Zikani Therapeutics, Inc., priority 2019, dated 2026).
# Legend:
# Assay type in all cases: cell-based
# A. baumannii MP-15 = assay: MIC determination by CLSI broth dilution, A. baumannii MP-15; conditions: Acinetobacter baumannii, MP15, strain MP-15, read-out: MIC A. baumanii MP-15
# E. coli MP-4 = assay: MIC determination by CLSI broth dilution, E. coli MP-4; conditions: Escherichia coli, MP4, CLSI broth dilution; strain MP-4
# S. aureus MP-12 = assay: microbe, parasite or virus in culture; conditions: Staphylococcus aureus, MP12, read-out: MIC S. aureus MP-12
# K. pneumoniae MP-546 = assay: MIC determination by CLSI broth dilution, K. pneumoniae MP-546; conditions: Klebsiella pneumoniae, MP546, CLSI broth dilution; strain MP-546
# P. aeruginosa MP-3 = assay: MIC determination by CLSI broth dilution, P. aeruginosa MP-3; conditions: Pseudomonas aeruginosa, MP3, strain MP-3
SMILES,MIC (A. baumannii MP-15),MIC (E. coli MP-4),MIC (S. aureus MP-12),MIC (K. pneumoniae MP-546),MIC (P. aeruginosa MP-3)
"CO[C@]1(C)C[C@@H](C)CN(C)[C@@H](CCCN2CCCCC2)COC(=O)C(C)(C)C(=O)[C@H](C)[C@H]1O[C@@H]1O[C@H](C)C[C@H](N(C)C)[C@H]1O [Compound 83, (3S,6R,8R,9R,10R)-9-(((2S,3R,4S,6R)-4-(dimethylamino)-3-hydroxy-6-methyltetrahydro-2H-pyran-2-yl)oxy)-8-methoxy-4,6,8,10,12,12-hexamethyl-3-(3-(piperidin-1-yl)propyl)-1-oxa-4-azacyclotridecane-11,13-dione]",> 32 µg/mL,< 4 µg/mL,4 to 32 µg/mL,< 4 µg/mL,> 32 µg/mL
"CO[C@]1(C)C[C@@H](C)CN(C)[C@@H](C(=O)N2CCN(C(C)C)CC2)[C@H](C)OC(=O)C(C)(C)C(=O)[C@H](C)[C@H]1O[C@@H]1O[C@H](C)C[C@H](N(C)C)[C@H]1O [Compound 91, (2S,3R,6R,8R,9R,10R)-9-(((2S,3R,4S,6R)-4-(dimethylamino)-3-hydroxy-6-methyltetrahydro-2H-pyran-2-yl)oxy)-3-(4-isopropylpiperazine-1-carbonyl)-8-methoxy-2,4,6,8,10,12,12-heptamethyl-1-oxa-4-azacyclotridecane-11,13-dione]",> 32 µg/mL,> 32 µg/mL,> 32 µg/mL,> 32 µg/mL,> 32 µg/mL
"CO[C@]1(C)C[C@@H](C)CN(C)[C@@H](C(=O)N2CCN(C)CC2)[C@H](C)OC(=O)C(C)(C)C(=O)[C@H](C)[C@H]1O[C@@H]1O[C@H](C)C[C@H](N(C)C)[C@H]1O [Compound 97, (2S,3R,6R,8R,9R,10R)-9-(((2S,3R,4S,6R)-4-(dimethylamino)-3-hydroxy-6-methyltetrahydro-2H-pyran-2-yl)oxy)-8-methoxy-2,4,6,8,10,12,12-heptamethyl-3-(4-methylpiperazine-1-carbonyl)-1-oxa-4-azacyclotridecane-11,13-dione]",> 32 µg/mL,> 32 µg/mL,> 32 µg/mL,> 32 µg/mL,> 32 µg/mL
"CO[C@]1(C)C[C@@H](C)CN(C)[C@@H](CN(C)Cc2nccn2C)COC(=O)C(C)(C)C(=O)[C@H](C)[C@H]1O[C@@H]1O[C@H](C)C[C@H](N(C)C)[C@H]1O [Compound 104, (3S,6R,8R,9R,10R)-9-(((2S,3R,4S,6R)-4-(Dimethylamino)-3-hydroxy-6-methyltetrahydro-2H-pyran-2-yl)oxy)-8-methoxy-4,6,8,10,12,12-hexamethyl-3-((methyl((1-methyl-11H-imidazol-2-yl)methyl)amino)methyl)-1-oxa-4-azacyclotridecane-11,13-dione]",> 32 µg/mL,4 to 32 µg/mL,> 32 µg/mL,> 32 µg/mL,> 32 µg/mL
"CO[C@]1(C)C[C@@H](C)CN(C)[C@@H](CN2CCN(C(=O)C(F)(F)F)CC2)[C@H](C)OC(=O)C(C)(C)C(=O)[C@H](C)[C@H]1O[C@@H]1O[C@H](C)C[C@H](N(C)C)[C@H]1O [Compound 109, (2S,3S,6R,8R,9R,10R)-9-(((2S,3R,4S,6R)-4-(dimethylamino)-3-hydroxy-6-methyltetrahydro-2H-pyran-2-yl)oxy)-8-methoxy-2,4,6,8,10,12,12-heptamethyl-3-((4-(2,2,2-trifluoroacetyl)piperazin-1-yl)methyl)-1-oxa-4-azacyclotridecane-11,13-dione]",> 32 µg/mL,4 to 32 µg/mL,4 to 32 µg/mL,> 32 µg/mL,> 32 µg/mL
"CO[C@]1(C)C[C@@H](C)CN(C)[C@@H](CN2CCN(C(=O)C(C)(C)C)CC2)[C@H](C)OC(=O)C(C)(C)C(=O)[C@H](C)[C@H]1O[C@@H]1O[C@H](C)C[C@H](N(C)C)[C@H]1O [Compound 114, (2S,3S,6R,8R,9R,10R)-9-(((2S,3R,4S,6R)-4-(dimethylamino)-3-hydroxy-6-methyltetrahydro-2H-pyran-2-yl)oxy)-8-methoxy-2,4,6,8,10,12,12-heptamethyl-3-((4-pivaloylpiperazin-1-yl)methyl)-1-oxa-4-azacyclotridecane-11,13-dione]",> 32 µg/mL,> 32 µg/mL,4 to 32 µg/mL,> 32 µg/mL,> 32 µg/mL
"CO[C@]1(C)C[C@@H](C)CN(C)[C@@H](C(=O)N2CCN(CC(F)(F)F)CC2)[C@H](C)OC(=O)C(C)(C)C(=O)[C@H](C)[C@H]1O[C@@H]1O[C@H](C)C[C@H](N(C)C)[C@H]1O [Compound 130, (2S,3R,6R,8R,9R,10R)-9-(((2S,3R,4S,6R)-4-(dimethylamino)-3-hydroxy-6-methyltetrahydro-2H-pyran-2-yl)oxy)-8-methoxy-2,4,6,8,10,12,12-heptamethyl-3-(4-(2,2,2-trifluoroethyl)piperazine-1-carbonyl)-1-oxa-4-azacyclotridecane-11,13-dione]",> 32 µg/mL,> 32 µg/mL,> 32 µg/mL,> 32 µg/mL,> 32 µg/mL
"CCC(=O)N1CCN(C[C@H]2[C@H](C)OC(=O)C(C)(C)C(=O)[C@H](C)[C@@H](O[C@@H]3O[C@H](C)C[C@H](N(C)C)[C@H]3O)[C@](C)(OC)C[C@@H](C)CN2C)CC1 [Compound 133, (2S,3S,6R,8R,9R,10R)-9-(((2S,3R,4S,6R)-4-(dimethylamino)-3-hydroxy-6-methyltetrahydro-2H-pyran-2-yl)oxy)-8-methoxy-2,4,6,8,10,12,12-heptamethyl-3-((4-propionylpiperazin-1-yl)methyl)-1-oxa-4-azacyclotridecane-11,13-dione]",> 32 µg/mL,> 32 µg/mL,4 to 32 µg/mL,> 32 µg/mL,> 32 µg/mL
"CO[C@]1(C)C[C@@H](C)CN(C)[C@@H](CN2CCN(C(C)=O)CC2)[C@H](C)OC(=O)C(C)(C)C(=O)[C@H](C)[C@H]1O[C@@H]1O[C@H](C)C[C@H](N(C)C)[C@H]1O [Compound 135, (2S,3S,6R,8R,9R,10R)-3-((4-acetylpiperazin-1-yl)methyl)-9-(((2S,3R,4S,6R)-4-(dimethylamino)-3-hydroxy-6-methyltetrahydro-2H-pyran-2-yl)oxy)-8-methoxy-2,4,6,8,10,12,12-heptamethyl-1-oxa-4-azacyclotridecane-11,13-dione]",> 32 µg/mL,> 32 µg/mL,4 to 32 µg/mL,> 32 µg/mL,> 32 µg/mL
"CO[C@]1(C)C[C@@H](C)CN(C)[C@@H](C(=O)N2CCNCC2)[C@H](C)OC(=O)C(C)(C)C(=O)[C@H](C)[C@H]1O[C@@H]1O[C@H](C)C[C@H](N(C)C)[C@H]1O [Compound 136, (2S,3R,6R,8R,9R,10R)-9-(((2S,3R,4S,6R)-4-(dimethylamino)-3-hydroxy-6-methyltetrahydro-2H-pyran-2-yl)oxy)-8-methoxy-2,4,6,8,10,12,12-heptamethyl-3-(piperazine-1-carbonyl)-1-oxa-4-azacyclotridecane-11,13-dione]",> 32 µg/mL,> 32 µg/mL,> 32 µg/mL,> 32 µg/mL,> 32 µg/mL
"CO[C@]1(C)C[C@@H](C)CN(C)[C@@H](CN2CCN(S(=O)(=O)c3ccc(C)cc3)CC2)[C@H](C)OC(=O)C(C)(C)C(=O)[C@H](C)[C@H]1O[C@@H]1O[C@H](C)C[C@H](N(C)C)[C@H]1O [Compound 139, (2S,3S,6R,8R,9R,10R)-9-(((2S,3R,4S,6R)-4-(dimethylamino)-3-hydroxy-6-methyltetrahydro-2H-pyran-2-yl)oxy)-8-methoxy-2,4,6,8,10,12,12-heptamethyl-3-((4-tosylpiperazin-1-yl)methyl)-1-oxa-4-azacyclotridecane-11,13-dione]",> 32 µg/mL,> 32 µg/mL,4 to 32 µg/mL,> 32 µg/mL,> 32 µg/mL
